Measured values taken from US10407388B2, “Thiourea derivatives as activators of RORα and pharmaceutical composition containing same” (SEOUL NATIONAL UNIVERSITY R & DB FOUNDATION, priority 2011, dated 2019).

Key:
[1] = target: T1, RORα (Homo sapiens, UniProt P35398); test: Transcriptional activity of RORα, RORE-tk-Luc reporter in CV-1 cells (Experimental Example 1); assay type: cell-based; settings: for Fold Activation: JC1 compounds 100 μM, 24 hours, luciferase activity standardized by β-gal, versus control treated only with solvent
T1 construct: expressed in transfected cells; host or cells: CV-1 cells (ATCC CCL-70)
T1 sequence (P35398 1-523): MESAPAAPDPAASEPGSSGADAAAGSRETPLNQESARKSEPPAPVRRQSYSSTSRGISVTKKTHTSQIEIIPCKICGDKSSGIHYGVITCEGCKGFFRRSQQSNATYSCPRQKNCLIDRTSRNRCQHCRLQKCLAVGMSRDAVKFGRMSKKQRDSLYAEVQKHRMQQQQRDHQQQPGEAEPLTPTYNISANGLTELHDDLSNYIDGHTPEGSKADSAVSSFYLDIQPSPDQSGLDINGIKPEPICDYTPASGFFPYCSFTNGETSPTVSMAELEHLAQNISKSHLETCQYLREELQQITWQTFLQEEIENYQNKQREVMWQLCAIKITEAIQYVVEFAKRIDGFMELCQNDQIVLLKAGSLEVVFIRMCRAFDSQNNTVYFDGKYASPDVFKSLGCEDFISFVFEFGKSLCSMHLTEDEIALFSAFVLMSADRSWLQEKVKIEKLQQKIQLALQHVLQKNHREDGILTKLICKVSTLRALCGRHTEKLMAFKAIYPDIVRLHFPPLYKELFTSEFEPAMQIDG
Description: CV-1 cells (CCL-70) were purchased from American Type Culture Collection (ATCC). The CV-1 cells (4×10^4 cells/well) were seeded on a 24-well culture plate and cultured overnight in a Dulbecco's Modified Eagle's Medium (DMEM) containing 10% fetal bovine serum (FBS). The CV-1 cells were maintained at 37° C. in a humidification thermostat containing 5% CO2 and 95% air. After culturing, the cells were transformed with RORE-tk-Luc reporter plasmid (100 ng) and ROR expression vector (5 ng) using calcium phosphate. […]

[2] = Chemical stability of JC1 compounds; assay type: physicochemical
[3] = test system: LXRα; test: Transcriptional activity of LXRα, LXRE-Luc reporter in HepG2 cells treated with T17; assay type: cell-based, human; settings: 1 μM, 10 μM, 20 μM, 50 μM, and 100 μM with 1 μM T17, 24 hours; FIG. 5a
Description: A human hepatoma cell line and HepG2 (ATCC HB 8065) were purchased from ATCC. HepG2 cells (1.2×10^5 cells/well) were seeded on a 24-well culture plate and cultured overnight in a DMEM containing 10% FBS. The HepG2 cells were maintained at 37° C. in a humidification thermostat containing 5% CO2 and 95% air. After culturing, the HepG2 cells were transformed with LXRE-Luc reporter (0.1 μg) using Welfect-EXTM Plus (WelGENE Inc., Korea). 24 hours after transformation, the HepG2 cells were treated with particular concentrations (1 μM, 10 μM, 20 μM, 50 μM, and 100 μM) of JC1-38, JC1-40, and JC1-42 and 1 μM T17 (T0901317), which is a ligand of LXRα, for 24 hours. Subsequently, cell lysates were collected, and luciferase activity was analyzed and determined using an analytical luminescence luminometer. The luciferase activity was standardized by β-gal activity to determine transcriptional activity, and data was attained as the mean and SD for two or three independent experimental results, and the results thereof are illustrated in FIG. 5a.

[4] = test system: SREBP-1; test: Transcriptional activity of SREBP-1, SRE-Luc reporter in HepG2 cells treated with T17; assay type: cell-based, human; settings: 50 μM with 1 μM T17, 24 hours; FIG. 5b
Description: In addition, HepG2 cells were cultured under the same conditions, and then the HepG2 cells were transformed with SRE-Luc reporter (0.1 μg) using Welfect-EXTM Plus (WelGENE Inc., Korea). 24 hours after transformation, the HepG2 cells were treated with each of the JC1-38, JC1-40, and JC1-42 compounds at a concentration of 50 μM and 1 μM T17 (T0901317) for 24 hours. Subsequently, cell lysates were collected, and luciferase activity was analyzed and determined using an analytical luminescence luminometer. The luciferase activity was standardized by β-gal activity to determine transcriptional efficiency, and data was attained as the mean and SD for three independent experimental results, and the results thereof are illustrated in FIG. 5b.

[5] = test system: MCAD; test: Fatty acid oxidation gene MCAD in HepG2 cells, real-time RT-PCR; assay type: cell-based, human; settings: 100 μM, 24 hours; FIG. 8
Description: (§1) HepG2 cells (1×10^6 cells/well) were seeded on a 60-dish and cultured overnight in a DMEM containing 10% FBS. The HepG2 cells were maintained at 37° C. in a humidification thermostat containing 5% CO2 and 95% air. After culturing, the HepG2 cells were treated with JC1-38, JC1-40, and JC1-42 at a concentration of 100 μM for 24 hours. After treatment, effects thereof on transcriptional activity were analyzed by real-time reverse transcriptase-polymerase chain reaction (real-time RT-PCR) analysis. The PCR was performed using the following primers respectively specific to MCAD, ACO1, ACO2, HMGCS2, CPT-1, and ACS, which are involved in fatty acid oxidation: […]

[6] = test system: ACO1; test: Fatty acid oxidation gene ACO1 in HepG2 cells, real-time RT-PCR; assay type: cell-based, human; settings: 100 μM, 24 hours; FIG. 8
Description: as §1

[7] = test system: ACO2; test: Fatty acid oxidation gene ACO2 in HepG2 cells, real-time RT-PCR; assay type: cell-based, human; settings: 100 μM, 24 hours; FIG. 8
Description: as §1

[8] = test system: HMGCS2; test: Fatty acid oxidation gene HMGCS2 in HepG2 cells, real-time RT-PCR; assay type: cell-based, human; settings: 100 μM, 24 hours; FIG. 8
Description: as §1

[9] = test system: CPT-1; test: Fatty acid oxidation gene CPT-1 in HepG2 cells, real-time RT-PCR; assay type: cell-based, human; settings: 100 μM, 24 hours; FIG. 8
Description: as §1

[10] = test system: ACS; test: Fatty acid oxidation gene ACS in HepG2 cells, real-time RT-PCR; assay type: cell-based, human; settings: 100 μM, 24 hours; FIG. 8
Description: as §1

[11] = test system: CD36; test: Fatty acid uptake gene CD36 in HepG2 cells, RT-PCR; assay type: cell-based, human; settings: 100 μM, 24 hours; FIG. 9a
Description: as §1, with “60-dish,” for “60-dish”, “RT-PCR” for “real-time reverse transcriptase-polymerase chain reaction (real-time RT-PCR)”, “CD36 (see FIG. 9a) involved in fatty acid uptake” for “MCAD, ACO1, ACO2, HMGCS2, CPT-1,”, “MTTP and ApoB100 (see FIG. 9b),” for “ACS,”, “the secretion of very low density lipoproteins:” for “fatty acid oxidation:”

[12] = test system: ApoB100; test: VLDL secretion gene ApoB100 in HepG2 cells, RT-PCR; assay type: cell-based, human; settings: 100 μM, 24 hours; FIG. 9b
Description: as §1, with “60-dish,” for “60-dish”, “RT-PCR” for “real-time reverse transcriptase-polymerase chain reaction (real-time RT-PCR)”, “CD36 (see FIG. 9a) involved in fatty acid uptake” for “MCAD, ACO1, ACO2, HMGCS2, CPT-1,”, “MTTP and ApoB100 (see FIG. 9b),” for “ACS,”, “the secretion of very low density lipoproteins:” for “fatty acid oxidation:”

SMILES | Fold Activation [1] | chemical stability [2] | transcriptional activity of LXRα, which had been increased by T17 [3] | transcriptional activity of SREBP-1, which had been increased by T17 [4] | transcriptional activity of MCAD [5] | transcriptional activity of ACO1 [6] | transcriptional activity of ACO2 [7] | transcriptional activity of HMGCS2 [8] | transcriptional activity of CPT-1 [9] | transcriptional activity of ACS [10] | transcriptional activity of CD36 [11] | transcriptional activity of ApoB100 [12] | activity (transcriptional activity of RORα) ([1]; 100 μM, relative to control treated only with a solvent) [%]
CNC(=S)NCc1ccccc1-c1ccncc1 [Compound 38, 1-methyl-3-(4-pyridinyl-2-benzyl)-thiourea] | 1.9 | highly chemically stable | decreased in a manner dependent on the concentration | decreased | increased | increased | increased | increased | increased | increased | decreased | increased | 
CNC(=S)NCc1ccc(Oc2ccccc2)cc1 [Compound 42, 1-(4-phenoxy-benzyl)-3-methyl-thiourea] | 4.6 | highly chemically stable | decreased in a manner dependent on the concentration | decreased | increased | increased | increased | increased | increased | increased | decreased | increased | 460
CNC(=S)NCc1ccc(OCc2ccccc2)cc1 [Compound 40, 1-(4-benzyloxy-benzyl)-3-methyl-thiourea] | 3.6 | highly chemically stable | decreased in a manner dependent on the concentration | decreased | increased | increased | increased | increased | increased | increased | decreased | increased | 
